Data on 37 compounds can be found in the RepoRT retention time repository.

This data set is described as follows: HILIC, Waters Atlantis Premier BEH Z-HILIC, 100 × 2.1 mm, 1.7 µm, 40 °C, 0.16 mL/min, estimated dead time 1.4 min; A: water + 20 mM ammonium carbonate + 5 µM medronic acid; B: 10% water + 90% acetonitrile + 2 mM ammonium carbonate + 0.5 µM medronic acid; gradient (min/%B) 0/97 18/55 18.1/20 21.5/20 22/97 23.5/97 25.5/97. Particulars: stereoisomer not certain.
On to `O=C(O)CCC(=O)C(=O)O` [2-Oxoglutaric acid], for which the LC retention time was 9.15 min. On to `O=C(O)CCC(O)C(=O)O` (configuration not stated) [2-hydroxy glutaric acid], for which the LC retention time was 9.7 min. The value for `Nc1ncnc2c1ncn2C1OC(COP(=O)(O)OP(=O)(O)O)C(O)C1O` (configuration not stated) [ADP] was 11.6 min; that for `Nc1ncnc2c1ncn2C1OC(COP(=O)(O)O)C(O)C1O` (configuration not stated) [AMP] was 9.68 min; that for `Nc1ncnc2c1ncn2C1OC(COP(=O)(O)OP(=O)(O)OP(=O)(O)O)C(O)C1O` (configuration not stated) [ATP] was 13.3 min. For `CC(=O)SCCNC(=O)CCNC(=O)C(O)C(C)(C)COP(=O)(O)OP(=O)(O)OCC1OC(n2cnc3c(N)ncnc32)C(O)C1OP(=O)(O)O` (configuration not stated) [Acetyl-CoA], the LC retention time is 10.4 min. For `Nc1ncnc2c1ncn2C1OC(CO)C(O)C1O` (configuration not stated) [Adenosine], the LC retention time is 4.45 min. For the compound `NC(N)=NCCCC(N)C(=O)O` (configuration not stated) [Arginine], the LC retention time is 19.2 min. Consider `O=C(O)CCCCC1SCC2NC(=O)NC21` (configuration not stated) [Biotin], for which the LC retention time was 4.62 min.

On to `C[N+](C)(C)CC(O)CC(=O)[O-]` (configuration not stated) [Carnitine], for which the LC retention time is 10.1 min. With `O=C(O)CC(O)(CC(=O)O)C(=O)O` [Citric acid], the LC retention time was 13.7 min. For the compound `CC(C)(COP(=O)(O)OP(=O)(O)OCC1OC(n2cnc3c(N)ncnc32)C(O)C1OP(=O)(O)O)C(O)C(=O)NCCC(=O)NCCS` (configuration not stated) [CoenzymeA], the LC retention time was 12 min. For the compound `Cc1cc2nc3c(=O)[nH]c(=O)nc-3n(CC(O)C(O)C(O)COP(=O)(O)OP(=O)(O)OCC3OC(n4cnc5c(N)ncnc54)C(O)C3O)c2cc1C` (configuration not stated) [FAD], the LC retention time is 7.63 min. For `O=C(CO)C(O)C(O)C(O)COP(=O)(O)O` (configuration not stated) [Fructose 6-phosphate], the LC retention time is 11.5 min.

Take `O=P(O)(O)OCC1OC(O)(COP(=O)(O)O)C(O)C1O` (configuration not stated) [Fructose-1,6-bisphosphate]: the LC retention time was 15.5 min. As for `Nc1nc2c(ncn2C2OC(COP(=O)(O)OP(=O)(O)OP(=O)(O)O)C(O)C2O)c(=O)[nH]1` (configuration not stated) [GTP], the LC retention time is 15.7 min. For `O=P(O)(O)OCC1OC(O)C(O)C(O)C1O` (configuration not stated) [Glucose-6-phosphate], the LC retention time was 12.5 min.

For `NC(CCC(=O)O)C(=O)O` (configuration not stated) [Glutamic acid], the LC retention time was 9.93 min. Take `NC(=O)CCC(N)C(=O)O` (configuration not stated) [Glutamine]: the LC retention time is 10.6 min. Under `O=P(O)(O)OCC(O)CO` (configuration not stated) [Glycerol-3-phosphate] stands 10.6 min; under `OCC1OC(O)C(O)C(O)C1O` (configuration not stated) [Hexose], 7.87 min. On to `O=C(O)CC(C(=O)O)C(O)C(=O)O` (configuration not stated) [Isocitric acid], for which the LC retention time was 13.6 min.

As to `CCC(C)C(N)C(=O)O` (configuration not stated) [Isoleucine], the LC retention time is 6.73 min. With `CC(O)C(=O)O` (configuration not stated) [Lactic Acid], the LC retention time was 3.29 min.

As to `CC(C)CC(N)C(=O)O` (configuration not stated) [Leucine], the LC retention time was 6.36 min. The value for `NCCCCC(N)C(=O)O` (configuration not stated) [Lysine] was 19.4 min; that for `NC(=O)C1=CN(C2OC(COP(=O)(O)OP(=O)(O)OCC3OC(n4cnc5c(N)ncnc54)C(O)C3O)C(O)C2O)C=CC1` (configuration not stated) [NADH] was 8.9 min. As for `NC(=O)C1=CN(C2OC(COP(=O)(O)OP(=O)(O)OCC3OC(n4cnc5c(N)ncnc54)C(OP(=O)(O)O)C3O)C(O)C2O)C=CC1` (configuration not stated) [NADPH], the LC retention time is 13.8 min. Turning to `NC(=O)c1ccc[n+](C2OC(COP(=O)(O)OP(=O)(O)OCC3OC(n4cnc5c(N)ncnc54)C(OP(=O)(O)O)C3O)C(O)C2O)c1` (configuration not stated) [NADP], the LC retention time was 13.3 min. `NC(=O)c1ccc[n+](C2OC(COP(=O)(O)OP(=O)(O)OCC3OC(n4cnc5c(N)ncnc54)C(O)C3O)C(O)C2O)c1` (configuration not stated) [NAD]: the LC retention time was 10.5 min. Take `C=C(OP(=O)(O)O)C(=O)O` [PEP]: the LC retention time is 13.4 min. On to `O=C(O)C(CO)OP(=O)(O)O` (configuration not stated) [Phosphoglyceric acid A], for which the LC retention time is 12.6 min. For `O=C(O)CCC(=O)O` [Succinic Acid], the LC retention time was 9.71 min. Turning to `O=C(CO)COP(=O)(O)O` [Triose phosphate], the LC retention time was 10.4 min. Turning to `CC(=O)NC1C(OP(=O)(O)OP(=O)(O)OCC2OC(n3ccc(=O)[nH]c3=O)C(O)C2O)OC(CO)C(O)C1O` (configuration not stated) [UDP-GlcNAc], the LC retention time was 10.1 min.

As for `CCC(=O)OC(CC(=O)[O-])C[N+](C)(C)C` (configuration not stated) [carnitine-C3], the LC retention time was 6.89 min.

With `O=C1CC(C(=O)O)NC(=O)N1` (configuration not stated) [dihydroorotic acid], the LC retention time is 4.6 min.
